Assay results published in patent US12552752B2, “Atropisomers of pyridazinone derivatives as herbicides” (FMC Corporation, priority 2020, dated 2026).

Assays:
Format in all cases: in vivo
[1] = test system: ragweed (common ragweed, Ambrosia elatior); assay: Test A postemergence, ragweed; conditions: POST, 0 to 100 scale, approximately 10 d
Source text: (§1) Seeds of plant species selected from barnyardgrass (BYG, Echinochloa crus-galli), kochia (KOC, Kochia scoparia), ragweed (common ragweed, Ambrosia elatior), ryegrass, Italian (RGI, Lolium multiflorum), foxtail, giant (FTI, Setaria faberii), foxtail, green (Setaria viridis) and pigweed (PWR, Amaranthus retroflexus) were planted into a blend of loam soil and sand and treated preemergence with a directed soil spray using test chemicals formulated in a non-phytotoxic solvent mixture which included a surfactant. At the same time, plants selected from these weed species and also wheat (WWT, Triticum aestivum), corn (CPI, Zea mays), blackgrass (BKG, Alopecurus myosuroides) and galium (GAL, catchweed bedstraw, Galium aparine) were planted in pots containing the same blend of loam soil and sand and treated with postemergence applications of test chemicals formulated in the same manner Plants ranged in height from 2 to 10 cm and were in the one- to two-leaf stage for the postemergence treatment. Treated plants and untreated controls were maintained in a greenhouse for approximately 10 d, after which time all treated plants were compared to untreated controls and visually evaluated for injury. Plant response ratings, summarized in Tables 1-4, are based on a 0 to 100 scale where 0 is no effect and 100 is complete control. A dash (−) response means no test result. The ratings are followed by a letter representing the symptomology where S is Albinism, C is Chlorosis, G is Growth Inhibition and E is Emergence.

[2] = test system: wheat (WWT, Triticum aestivum); assay: Test A postemergence, wheat; conditions: POST, 0 to 100 scale, approximately 10 d
Source text: as §1

[3] = test system: foxtail, giant (FTI, Setaria faberii); assay: Test A postemergence, giant foxtail; conditions: POST, 0 to 100 scale, approximately 10 d
Source text: as §1

[4] = test system: kochia (KOC, Kochia scoparia); assay: Test A postemergence, kochia; conditions: POST, 0 to 100 scale, approximately 10 d
Source text: as §1

[5] = test system: barnyardgrass (BYG, Echinochloa crus-galli); assay: Test A preemergence, barnyardgrass; conditions: PRE, 0 to 100 scale, approximately 10 d
Source text: as §1

[6] = test system: ryegrass, Italian (RGI, Lolium multiflorum); assay: Test A preemergence, Italian ryegrass; conditions: PRE, 0 to 100 scale, approximately 10 d
Source text: as §1

[7] = test system: pigweed (PWR, Amaranthus retroflexus); assay: Test A postemergence, pigweed; conditions: POST, 0 to 100 scale, approximately 10 d
Source text: as §1

[8] = test system: galium (GAL, catchweed bedstraw, Galium aparine); assay: Test A postemergence, galium; conditions: POST, 0 to 100 scale, approximately 10 d
Source text: as §1

[9] = test system: kochia (KOC, Kochia scoparia); assay: Test A preemergence, kochia; conditions: PRE, 0 to 100 scale, approximately 10 d
Source text: as §1

[10] = test system: blackgrass (BKG, Alopecurus myosuroides); assay: Test A postemergence, blackgrass; conditions: POST, 0 to 100 scale, approximately 10 d
Source text: as §1

[11] = test system: foxtail, giant (FTI, Setaria faberii); assay: Test A preemergence, giant foxtail; conditions: PRE, 0 to 100 scale, approximately 10 d
Source text: as §1

[12] = test system: ryegrass, Italian (RGI, Lolium multiflorum); assay: Test A postemergence, Italian ryegrass; conditions: POST, 0 to 100 scale, approximately 10 d
Source text: as §1

corn (CPI, Zea mays) = assay: Test A postemergence, corn; conditions: POST, 0 to 100 scale, approximately 10 d
Source text: as §1

[13] = test system: pigweed (PWR, Amaranthus retroflexus); assay: Test A preemergence, pigweed; conditions: PRE, 0 to 100 scale, approximately 10 d
Source text: as §1

[14] = test system: barnyardgrass (BYG, Echinochloa crus-galli); assay: Test A postemergence, barnyardgrass; conditions: POST, 0 to 100 scale, approximately 10 d
Source text: as §1

[15] = 125 g ai/ha, listed as drawing 27
[16] = 31 g ai/ha, listed as drawing 27
[17] = 31 g ai/ha, listed as drawing 28
[18] = 125 g ai/ha, listed as drawing 28
[19] = 125 g ai/ha, listed as drawing 29
[20] = 31 g ai/ha, listed as drawing 29
[21] = 125 g ai/ha, listed as drawing 30
[22] = 31 g ai/ha, listed as drawing 30
[23] = 31 g ai/ha, listed as drawing 26
[24] = 125 g ai/ha, listed as drawing 26

Cc1ccc2ccccc2c1-c1c(O)c(Cl)nn(C)c1=O (racemic) [3 (Enantiomer 3A)]
Plant response rating RWC [1, 15]: 100 C | Plant response rating WWT ([2]; 31 g ai/ha): 0 | Plant response rating FTI [3, 16]: 20 S | Plant response rating KOC ([4]; 125 g ai/ha): 90 S | Plant response rating BYG [5, 15]: 50 S | Plant response rating RGI [6, 16]: 10 S | Plant response rating PWR ([7]; 125 g ai/ha): 100 C | Plant response rating GAL [8, 15]: 100 C

Cc1ccc2ccccc2c1-c1c(O)c(Cl)nn(C)c1=O (racemic) [3 (Enantiomer 3B)]
Plant response rating KOC [9, 17]: 10 S | Plant response rating KOC ([9]; 1000 g ai/ha): 100 C | Plant response rating RWC [1, 17]: 100 C | Plant response rating RWC ([1]; 1000 g ai/ha): 90 S | Plant response rating WWT [2, 18]: 30 S | Plant response rating WWT ([2]; 1000 g ai/ha): 90 S | Plant response rating FTI [3, 18]: 90 S | Plant response rating FTI ([3]; 1000 g ai/ha): 100 S | Plant response rating BKG [10, 17]: 0 | Plant response rating BKG ([10]; 1000 g ai/ha): 80 S | Plant response rating KOC ([4]; 1000 g ai/ha): 100 C | Plant response rating BYG [5, 17]: 80 S | Plant response rating BYG ([5]; 1000 g ai/ha): 100 C | Plant response rating RGI ([6]; 1000 g ai/ha): 100 S | Plant response rating PWR [7, 17]: 100 C | Plant response rating PWR ([7]; 1000 g ai/ha): 100 C | Plant response rating FTI [11, 18]: 100 C | Plant response rating FTI ([11]; 1000 g ai/ha): 100 C | Plant response rating RGI [12, 18]: 100 S | Plant response rating RGI ([12]; 1000 g ai/ha): 100 S | Plant response rating CPI (corn (CPI, Zea mays); 1000 g ai/ha): 50 S | Plant response rating PWR [13, 17]: 90 C | Plant response rating PWR ([13]; 1000 g ai/ha): 100 C | Plant response rating BYG ([14]; 1000 g ai/ha): 90 S | Plant response rating GAL [8, 17]: 100 C 100 C 100 C 100 C 100 C | Plant response rating GAL [8, 18]: 100 C 100 C 100 C 100 C 100 C | Plant response rating GAL ([8]; 1000 g ai/ha): 100 C 100 C 100 C 100 C 100 C

CCC(=O)Oc1c(Cl)nn(C)c(=O)c1-c1c(C)ccc2ccc(C)cc12 (racemic) [4 (Enantiomer 4A)]
Plant response rating KOC ([9]; 31 g ai/ha): 10 C | Plant response rating KOC [9, 19]: 50 S | Plant response rating RWC [1, 20]: 80 S | Plant response rating RWC [1, 19]: 90 S | Plant response rating WWT [2, 20]: 0 | Plant response rating WWT [2, 19]: 0 | Plant response rating FTI [3, 20]: 0 | Plant response rating FTI [3, 19]: 30 S | Plant response rating BKG [10, 20]: 10 C 10 C | Plant response rating BKG [10, 19]: 10 C 10 C | Plant response rating KOC ([4]; 31 g ai/ha): 50 S | Plant response rating KOC [4, 19]: 60 S | Plant response rating BYG [5, 20]: 0 | Plant response rating BYG [5, 19]: 0 | Plant response rating RGI [6, 20]: 0 | Plant response rating RGI [6, 19]: 10 C | Plant response rating PWR [7, 20]: 90 S | Plant response rating PWR [7, 19]: 100 C | Plant response rating FTI [11, 20]: 0 | Plant response rating FTI [11, 19]: 10 S | Plant response rating RGI [12, 20]: 10 C | Plant response rating RGI [12, 19]: 20 C | Plant response rating CPI (corn (CPI, Zea mays); [20]): 0 | Plant response rating CPI (corn (CPI, Zea mays); [19]): 0 | Plant response rating PWR [13, 20]: 90 C | Plant response rating PWR [13, 19]: 90 C | Plant response rating BYG [14, 20]: 0 | Plant response rating BYG [14, 19]: 30 C | Plant response rating GAL [8, 20]: 80 S | Plant response rating GAL [8, 19]: 100 C

CCC(=O)Oc1c(Cl)nn(C)c(=O)c1-c1c(C)ccc2ccc(C)cc12 (racemic) [4 (Enantiomer 4B)]
Plant response rating KOC [9, 21]: 70 S | Plant response rating RWC [1, 22]: 90 S | Plant response rating RWC [1, 21]: 100 C | Plant response rating WWT [2, 22]: 0 | Plant response rating WWT [2, 21]: 20 S | Plant response rating FTI [3, 22]: 80 S | Plant response rating FTI [3, 21]: 90 S | Plant response rating BKG [10, 22]: 20 S | Plant response rating BKG [10, 21]: 70 S | Plant response rating KOC [4, 21]: 50 S | Plant response rating BYG [5, 22]: 100 C | Plant response rating BYG [5, 21]: 100 C | Plant response rating RGI [6, 22]: 80 S | Plant response rating RGI [6, 21]: 90 S | Plant response rating PWR [7, 22]: 100 C 100 C 100 C 100 C | Plant response rating PWR [7, 21]: 100 C 100 C 100 C 100 C | Plant response rating FTI [11, 22]: 100 C | Plant response rating FTI [11, 21]: 100 C | Plant response rating RGI [12, 22]: 80 C | Plant response rating RGI [12, 21]: 90 C | Plant response rating CPI (corn (CPI, Zea mays); [22]): 10 G | Plant response rating CPI (corn (CPI, Zea mays); [21]): 10 S | Plant response rating PWR [13, 22]: 100 C 100 C 100 C 100 C | Plant response rating PWR [13, 21]: 100 C 100 C 100 C 100 C | Plant response rating BYG [14, 22]: 70 S | Plant response rating BYG [14, 21]: 90 S | Plant response rating GAL [8, 22]: 100 C 100 C | Plant response rating GAL [8, 21]: 100 C 100 C

Cc1ccc2ccc(C)c(-c3c(O)c(Cl)nn(C)c3=O)c2c1 (single isomer, unassigned) [2 (Enantiomer 2B)]
Plant response rating KOC [9, 23]: 0 | Plant response rating KOC [9, 24]: 90 C | Plant response rating RWC [1, 23]: 100 C 100 C | Plant response rating RWC [1, 24]: 100 C 100 C | Plant response rating WWT [2, 23]: 0 | Plant response rating WWT [2, 24]: 30 S | Plant response rating FTI [3, 23]: 80 S | Plant response rating FTI [3, 24]: 90 S | Plant response rating BKG [10, 23]: 30 C | Plant response rating BKG [10, 24]: 40 S | Plant response rating KOC ([4]; 31 g ai/ha): 60 S | Plant response rating KOC [4, 24]: 70 S | Plant response rating BYG [5, 23]: 90 S | Plant response rating BYG [5, 24]: 100 C | Plant response rating RGI [6, 23]: 80 S | Plant response rating RGI [6, 24]: 100 S | Plant response rating PWR ([7]; 125 g ai/ha): 100 C 100 C 100 C 100 C | Plant response rating FTI [11, 23]: 100 C | Plant response rating FTI [11, 24]: 100 C | Plant response rating RGI [12, 23]: 100 C | Plant response rating RGI [12, 24]: 100 C | Plant response rating CPI (corn (CPI, Zea mays); [23]): 0 | Plant response rating CPI (corn (CPI, Zea mays); 125 g ai/ha): 30 G | Plant response rating BYG [14, 23]: 80 C | Plant response rating BYG [14, 24]: 90 C | Plant response rating GAL [8, 23]: 100 C | Plant response rating GAL [8, 24]: 90 C
